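Tested at 5 concentrations; 48 h exposure; 96-well plates; endpoints linearly interpolated, else capped at highest concentration. At the GI50, growth is halved.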 The source made the active and inactive calls. No stated cut-off is given here; in the data, active = GI50 up to about 1.1 µM and inactive = higher.
Assays:
Assay in all cases: NCI anticancer screen, dose series, 48 h
MOLT-4 = tested on: MOLT-4
T47D = tested on: T47D
SK-MEL-2 = tested on: SK-MEL-2
DU-145 = tested on: DU-145
MDA-MB-231 = tested on: MDA-MB-231
OVCAR-4 = tested on: OVCAR-4
TK-10 = tested on: TK-10
786-0 = tested on: 786-0
NCI-H460 = tested on: NCI-H460
K562 = tested on: K562
ACHN = tested on: ACHN
UACC-257 = tested on: UACC-257
IGROV-1 = tested on: IGROV-1
SF-539 = tested on: SF-539
NCI-H23 = tested on: NCI-H23
UO-31 = tested on: UO-31
A498 = tested on: A498
PC-3 = tested on: PC-3
SW-620 = tested on: SW-620
SF-295 = tested on: SF-295

Compound	GI50 (MOLT-4)	GI50 (T47D)	GI50 (SK-MEL-2)	GI50 (DU-145)	GI50 (MDA-MB-231)	GI50 (OVCAR-4)	GI50 (TK-10)	GI50 (786-0)	GI50 (NCI-H460)	GI50 (K562)	GI50 (ACHN)	GI50 (UACC-257)	GI50 (IGROV-1)	GI50 (SF-539)	GI50 (NCI-H23)	GI50 (UO-31)	GI50 (A498)	GI50 (PC-3)	GI50 (SW-620)	GI50 (SF-295)
CCC/C=C/C=C/C(=O)OC1C(C)C2(O)C3C=C(C)C(=O)C3CC(COC(C)=O)=CC2C2C(C)(C)C12OC(=O)C(C)C (stereo not given)	0.966 µM (active)	18.5 µM (inactive)	18.4 µM (inactive)	29.6 µM (inactive)	3.92 µM (inactive)	22.9 µM (inactive)	13.5 µM (inactive)	9.62 µM (inactive)	3.08 µM (inactive)	0.091 µM (active)	9.46 µM (inactive)	16.7 µM (inactive)	16.8 µM (inactive)	11.7 µM (inactive)	12.8 µM (inactive)	15.4 µM (inactive)	1.66 µM (inactive)	11.6 µM (inactive)	0.622 µM (active)	0.462 µM (active)
N#CC1=C(S)N(C2OC(CO)C(O)C(O)C2O)C(c2ccccc2)=CC1c1ccccc1 (stereo not given)	29.8 µM (inactive)	18.2 µM (inactive)	6.53 µM (inactive)	> 100 µM (inactive)	64.3 µM (inactive)	75.9 µM (inactive)	> 100 µM (inactive)	37.9 µM (inactive)	37.6 µM (inactive)	30.1 µM (inactive)	62.1 µM (inactive)	51.6 µM (inactive)	46 µM (inactive)	24.7 µM (inactive)	> 100 µM (inactive)	> 100 µM (inactive)	59.3 µM (inactive)	30.7 µM (inactive)	5.66 µM (inactive)	34.3 µM (inactive)
C[C@@H]1C(O)CC[C@H](C)C12CC=CC2=O (stereo not given in full)	> 100 µM (inactive)	> 100 µM (inactive)	> 100 µM (inactive)	> 100 µM (inactive)	> 100 µM (inactive)	> 100 µM (inactive)	> 100 µM (inactive)	> 100 µM (inactive)	> 100 µM (inactive)	> 100 µM (inactive)	> 100 µM (inactive)	> 100 µM (inactive)	> 100 µM (inactive)	> 100 µM (inactive)	> 100 µM (inactive)	> 100 µM (inactive)	> 100 µM (inactive)	> 100 µM (inactive)	> 100 µM (inactive)	> 100 µM (inactive)
CCCC(=O)NC(Nc1ccc(S(=O)(=O)Nc2ccc(OC)nn2)cc1)(C(F)(F)F)C(F)(F)F	> 100 µM (inactive)	> 100 µM (inactive)	> 100 µM (inactive)	> 100 µM (inactive)	> 100 µM (inactive)	> 100 µM (inactive)	> 100 µM (inactive)	> 100 µM (inactive)	> 100 µM (inactive)	> 100 µM (inactive)	> 100 µM (inactive)	> 100 µM (inactive)	> 100 µM (inactive)	> 100 µM (inactive)	> 100 µM (inactive)	> 100 µM (inactive)	87.9 µM (inactive)	> 100 µM (inactive)	> 100 µM (inactive)	> 100 µM (inactive)
COc1ccc2[nH]c3c(C)c4ccnc(NCCCN(C)CCCNc5ccc([N+](=O)[O-])c6[nH]c7ccccc7c(=O)c56)c4c(C)c3c2c1	0.005 µM (active)	0.815 µM (active)	0.731 µM (active)	0.628 µM (active)	0.621 µM (active)	0.132 µM (active)	0.018 µM (active)	0.0244 µM (active)	0.025 µM (active)	0.00652 µM (active)	0.0207 µM (active)	0.655 µM (active)	0.0291 µM (active)	0.106 µM (active)	0.575 µM (active)	0.59 µM (active)	0.841 µM (active)	0.426 µM (active)	0.00811 µM (active)	0.104 µM (active)
